PMC6572064, “Discovery of 2-(1-(3-(4-Chloroxyphenyl)-3-oxo- propyl)pyrrolidine-3-yl)-1H-benzo[d]imidazole-4-carboxamide: A Potent Poly(ADP-ribose) Polymerase (PARP) Inhibitor for Treatment of Cancer” (Molecules, 2019)
Where two headings read alike, the source gives them in different places.

Legend:
PARP-1 = molecular target: T1, PARP-1 (Homo sapiens, UniProt P09874); test: PARP-1 inhibition assay (PARP-1 Chemiluminescent Assay Kit, BPS Bioscience); type: biochemical
T1 construct: purchased BPS Bioscience 80569
Protocol: (§1) The PARP-1 and PARP-2 inhibition assays were performed in outsourcing, by a CRO company, Shanghai Medicilon Inc. (Shanghai, China). […] Briefly, PARP-1 or PARP-2 biotinylated substrate was incubated with compounds or solvent control at varying concentrations and an assay buffer containing the PARP-1 or PARP-2 enzyme.

PARP-2 = molecular target: T2, PARP-2 (Homo sapiens, UniProt Q9UGN5); test: PARP-2 inhibition assay (PARP-2 Chemiluminescent Assay Kit, BPS Bioscience); type: biochemical
T2 construct: purchased BPS Bioscience 80552
Protocol: as §1

[1] = test system: MDA-MB-436 (a BRCA-1-mutated breast cancer cell line); test: Cell proliferation assay, three-day, CellTiter-Glo, MDA-MB-436; type: cell-based; details: Homo sapiens; for inhibition at 0.00508 µM: MDA-MB-436, MDA-MB-436, Conc. 0.00508 uM; for inhibition at 0.0152 µM: MDA-MB-436, MDA-MB-436, Conc. 0.0152 uM; for inhibition at 0.0457 µM: MDA-MB-436, MDA-MB-436, Conc. 0.0457 uM; for inhibition at 0.41 µM: MDA-MB-436, MDA-MB-436, Conc. 0.41 uM; for inhibition at 1.23 µM: MDA-MB-436, MDA-MB-436, Conc. 1.23 uM; for inhibition at 3.7 µM: MDA-MB-436, MDA-MB-436, Conc. 3.70 uM; for inhibition at 11.11 µM: MDA-MB-436, MDA-MB-436, Conc. 11.11 uM; for inhibition at 33.33 µM: MDA-MB-436, MDA-MB-436, Conc. 33.33 uM; for inhibition at 100 µM: MDA-MB-436, MDA-MB-436, Conc. 100.00 uM; for IC50: MDA-MB-436, 72 h, CellTiter-Glo, read-out: MDA-MB-436 IC50
Procedure, shortened: (§2)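 Cells seeded overnight in 384-well plates, then exposed to compounds (DMSO stock diluted in medium) for 72 h at 37 °C, 5% CO2. Viability read as CellTiter-Glo luminescence after 60 min at room temperature.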

[2] = test system: CAPAN-1 (a BRCA-2-mutated pancreatic cancer cell line); test: Cell proliferation assay, three-day, CellTiter-Glo, CAPAN-1; type: cell-based; details: for IC50 / inhibition at 0.00508 µM / inhibition at 0.0152 µM / inhibition at 0.0457 µM / inhibition at […] / inhibition at 0.41 µM / inhibition at 1.23 µM / inhibition at 3.7 µM / inhibition at 11.11 µM / inhibition at 33.33 µM / inhibition at 100 µM: Homo sapiens; for IC50: CAPAN-1, read-out: CAPAN-1 IC50; for inhibition at 0.00508 µM: CAPAN-1, Conc. 0.00508 uM; for inhibition at 0.0152 µM: CAPAN-1, Conc. 0.0152 uM; for inhibition at 0.0457 µM: CAPAN-1, Conc. 0.0457 uM; for inhibition at […]: CAPAN-1, Conc. 0.14 uM; for inhibition at 0.41 µM: CAPAN-1, Conc. 0.41 uM; for inhibition at 1.23 µM: CAPAN-1, Conc. 1.23 uM; for inhibition at 3.7 µM: CAPAN-1, Conc. 3.70 uM; for inhibition at 11.11 µM: CAPAN-1, Conc. 11.11 uM; for inhibition at 33.33 µM: CAPAN-1, Conc. 33.33 uM; for inhibition at 100 µM: CAPAN-1, Conc. 100.00 uM
Procedure, shortened: as §2

T2 sequence (Q9UGN5 whole entry): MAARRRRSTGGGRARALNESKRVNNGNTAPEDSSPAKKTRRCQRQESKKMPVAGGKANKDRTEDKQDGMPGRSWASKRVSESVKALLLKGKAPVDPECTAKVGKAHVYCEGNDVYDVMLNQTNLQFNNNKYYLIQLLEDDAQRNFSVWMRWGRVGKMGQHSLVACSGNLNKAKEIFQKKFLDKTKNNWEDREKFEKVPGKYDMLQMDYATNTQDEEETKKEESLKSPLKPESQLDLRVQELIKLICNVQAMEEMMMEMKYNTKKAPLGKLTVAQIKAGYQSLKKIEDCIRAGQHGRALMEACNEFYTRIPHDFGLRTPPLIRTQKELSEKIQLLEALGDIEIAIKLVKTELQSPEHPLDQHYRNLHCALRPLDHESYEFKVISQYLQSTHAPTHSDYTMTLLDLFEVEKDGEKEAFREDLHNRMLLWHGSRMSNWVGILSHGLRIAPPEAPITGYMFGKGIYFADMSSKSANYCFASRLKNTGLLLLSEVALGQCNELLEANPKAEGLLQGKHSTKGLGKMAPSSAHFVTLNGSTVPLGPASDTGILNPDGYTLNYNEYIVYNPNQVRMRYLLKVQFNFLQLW
T1 sequence (P09874 whole entry): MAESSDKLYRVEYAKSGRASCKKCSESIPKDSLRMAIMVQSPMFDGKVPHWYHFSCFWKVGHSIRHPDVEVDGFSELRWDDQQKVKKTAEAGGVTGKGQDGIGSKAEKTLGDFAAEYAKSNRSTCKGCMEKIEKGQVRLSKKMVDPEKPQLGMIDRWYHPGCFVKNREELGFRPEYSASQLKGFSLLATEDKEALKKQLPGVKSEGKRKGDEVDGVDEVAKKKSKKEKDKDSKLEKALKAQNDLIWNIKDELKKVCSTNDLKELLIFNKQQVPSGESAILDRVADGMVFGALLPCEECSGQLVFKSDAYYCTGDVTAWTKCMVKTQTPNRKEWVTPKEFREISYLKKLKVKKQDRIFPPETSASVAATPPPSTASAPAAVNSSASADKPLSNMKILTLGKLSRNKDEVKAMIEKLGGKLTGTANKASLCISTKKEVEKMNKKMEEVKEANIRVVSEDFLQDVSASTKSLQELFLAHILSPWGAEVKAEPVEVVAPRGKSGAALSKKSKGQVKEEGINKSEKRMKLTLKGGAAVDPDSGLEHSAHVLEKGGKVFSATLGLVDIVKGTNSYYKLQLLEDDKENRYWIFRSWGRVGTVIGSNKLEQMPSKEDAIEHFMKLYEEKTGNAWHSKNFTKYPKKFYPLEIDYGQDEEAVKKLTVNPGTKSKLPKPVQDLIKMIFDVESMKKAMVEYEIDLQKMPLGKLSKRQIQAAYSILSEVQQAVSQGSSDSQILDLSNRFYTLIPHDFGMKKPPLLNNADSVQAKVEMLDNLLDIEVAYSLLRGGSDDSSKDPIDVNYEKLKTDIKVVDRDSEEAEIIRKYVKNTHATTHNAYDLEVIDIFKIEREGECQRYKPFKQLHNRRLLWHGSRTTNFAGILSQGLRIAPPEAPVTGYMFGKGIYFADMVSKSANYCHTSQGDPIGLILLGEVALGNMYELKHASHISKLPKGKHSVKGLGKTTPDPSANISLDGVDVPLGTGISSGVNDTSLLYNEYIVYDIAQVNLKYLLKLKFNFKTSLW

## NC(=O)c1cccc2[nH]c(C3CCN(CCNC(=O)c4ccccc4)C3)nc12 (stereo not drawn) [Compound 5co, 2-(1-(2-Benzamidoethyl)pyrrolidin-3-yl)-1H-benzo[d]imidazole-4-carboxamide]
PARP-1; 10 nM compound, supplement sheet, read-out: 10 nM inhibition% PAPR-1
  inhibition at 0.01 µM: 38.4%
PARP-1; 10 nM compound, read-out: PARP-1 Inhibition % (10 nM)
  inhibition at 0.01 µM: 38.4%
PARP-1; read-out: PARP-1 IC50
  IC50: 11.1 nM
PARP-2; 10 nM compound, supplement sheet, read-out: 10 nM inhibition% PAPR-2
  inhibition at 0.01 µM: 66.2%
PARP-2; 10 nM compound, read-out: PARP-2 Inhibition % (10 nM)
  inhibition at 0.01 µM: 66.2%
PARP-2; read-out: PARP-2 IC50
  IC50: 5.7 nM
PARP-2; supplement sheet, read-out: IC50 PAPR-2
  IC50: 5.67 nM
[1]; replicate 1, read-out: Inh % 1
  inhibition at 0.00508 µM: 0.116%
  inhibition at 0.0152 µM: 3.3%
  inhibition at 0.0457 µM: -7.2%
  inhibition at 0.41 µM: -3.1%
  inhibition at 1.23 µM: 5.2%
  inhibition at 3.7 µM: -2%
  inhibition at 11.11 µM: 2.4%
  inhibition at 33.33 µM: 15.5%
  inhibition at 100 µM: 25.7%
[1]; replicate 2, read-out: Inh % 2
  inhibition at 0.00508 µM: -6.8%
  inhibition at 0.0152 µM: -2.8%
  inhibition at 0.0457 µM: -12.8%
  inhibition at 0.41 µM: -1.7%
  inhibition at 1.23 µM: -9.2%
  inhibition at 3.7 µM: -0.8%
  inhibition at 11.11 µM: -2.7%
  inhibition at 33.33 µM: 10.6%
  inhibition at 100 µM: 18.3%
[1]
  IC50: > 100000 nM
[2]; 72 h, CellTiter-Glo
  IC50: > 100000 nM
[2]; replicate 1, read-out: Inh % 1
  inhibition at 0.00508 µM: -4.9%
  inhibition at 0.0152 µM: 7.4%
  inhibition at 0.0457 µM: 10.8%
  inhibition at […]: 5.7%
  inhibition at 0.41 µM: 7.1%
  inhibition at 1.23 µM: 9.2%
  inhibition at 3.7 µM: 25%
  inhibition at 11.11 µM: 17.9%
  inhibition at 33.33 µM: 16%
  inhibition at 100 µM: 29.2%
[2]; replicate 2, read-out: Inh % 2
  inhibition at 0.00508 µM: -7.9%
  inhibition at 0.0152 µM: -1.7%
  inhibition at 0.0457 µM: 10.6%
  inhibition at […]: 0.8%
  inhibition at 0.41 µM: 6.9%
  inhibition at 1.23 µM: 5%
  inhibition at 3.7 µM: 11.1%
  inhibition at 11.11 µM: -1.4%
  inhibition at 33.33 µM: 13.7%
  inhibition at 100 µM: 25.9%

## C[C@]1(c2nc3c(C(N)=O)cccc3[nH]2)CCCN1 [pc1, Veliparib, reference compound]
PARP-1; read-out: 10 nM inhibition% PAPR-1
  inhibition at 0.01 µM: 54.3%
PARP-1; read-out: PARP-1 Inhibition % (10 nM)
  inhibition at 0.01 µM: 63.7%
PARP-2; read-out: 10 nM inhibition% PAPR-2
  inhibition at 0.01 µM: 78.3%
PARP-2; read-out: PARP-2 Inhibition % (10 nM)
  inhibition at 0.01 µM: 78.3%
[1]; replicate 1, read-out: Inh % 1
  inhibition at 0.00508 µM: 0.064%
  inhibition at 0.0152 µM: -2.6%
  inhibition at 0.0457 µM: -7.5%
  inhibition at 0.41 µM: -3.2%
  inhibition at 1.23 µM: -5.4%
  inhibition at 3.7 µM: -2.1%
  inhibition at 11.11 µM: 3.2%
  inhibition at 33.33 µM: 11.6%
  inhibition at 100 µM: 34.3%
[1]; replicate 2, read-out: Inh % 2
  inhibition at 0.00508 µM: -7.5%
  inhibition at 0.0152 µM: -6.6%
  inhibition at 0.0457 µM: -6.4%
  inhibition at 0.41 µM: -9.9%
  inhibition at 1.23 µM: -2.1%
  inhibition at 3.7 µM: 2.6%
  inhibition at 11.11 µM: 2.2%
  inhibition at 33.33 µM: 7.4%
  inhibition at 100 µM: 20.3%
[1]
  IC50: > 100000 nM
[2]; 72 h, CellTiter-Glo
  CAPAN-1 IC50 (μM): low potency
  IC50: > 100000 nM
[2]; CAPAN-1, curve-fit output, concentration axis Log (uM)
  LogIC50: 2.067
[2]; replicate 1, read-out: Inh % 1
  inhibition at 0.00508 µM: -10.6%
  inhibition at 0.0152 µM: -2.1%
  inhibition at 0.0457 µM: -0.346%
  inhibition at […]: 9.5%
  inhibition at 0.41 µM: 7.8%
  inhibition at 1.23 µM: -10.7%
  inhibition at 3.7 µM: -17.8%
  inhibition at 11.11 µM: 5%
  inhibition at 33.33 µM: 12.5%
  inhibition at 100 µM: 43.2%
[2]; replicate 2, read-out: Inh % 2
  inhibition at 0.00508 µM: 3.8%
  inhibition at 0.0152 µM: -6.9%
  inhibition at 0.0457 µM: 3%
  inhibition at […]: 7.1%
  inhibition at 0.41 µM: -1.8%
  inhibition at 1.23 µM: -7.2%
  inhibition at 3.7 µM: -16.7%
  inhibition at 11.11 µM: 7.2%
  inhibition at 33.33 µM: 11.9%
  inhibition at 100 µM: 42.4%
